Source: US20230088528A1, “USE OF LIPID IN PREPARATION OF NUCLEIC ACID DELIVERY REAGENT AND RELATED PRODUCT THEREOF” (INSTITUTE OF BASIC MEDICAL SCIENCES CHINESE ACADEMY OF …, priority 2019, published 2023)

Assay: In vivo delivery of lipid-nucleic acid mixture (PGY-sRNA-26) by gavage, relative intake in blood and tissues by RT-qPCR
Parameters: species or system C57BL/6 male mice
Conditions: for oral delivery of sRNA single-chain nucleic acid into the blood, and lung, kidney, spleen, heart, and intestinal tissue of mice: 100 μg lipid:1 nmol PGY-sRNA-26 per mouse, 12 hrs after gavage, vs free intake group
Experimental: The concentration of a lipid solution in chloroform was 10 mg/ml (stock solution), and grouping was performed according to the lipid compound number.
1 nmol of small RNA (as shown in Table 2) was dissolved in 400 μl of DEPC-treated water in a glass tube, and 10 μl of a corresponding lipid stock solution was added, to give a system containing 100 μg of lipid. The system was well mixed, heated for 15 min in a water bath at 90° C., and then naturally cooled, to obtain a lipid-nucleic acid mixture of the lipid and small RNA.
The C57BL/6 male mice used in the experiment were purchased from Beijing Vital River Laboratory Animal Technology Co., Ltd., about 6 weeks old, and weighed 20-24 g. They were kept in an SPF animal room of the Animal Center of the Institute of Basic Medical Sciences, Chinese Academy of Medical Sciences. The mice were fasted for 12 hrs before gavage.
The lipid-nucleic acid mixture was prepared following the method as described in Example 2. The prepared lipid-nucleic acid mixture was orally administered at a dose of 100 μg lipid:1 nmol single-stranded small RNA PGY-sRNA-26 per mouse.
1) Blank group: Mice (n=4) were given 500 μl of normal saline by gavage, and this group served as a blank control group;
2) Free intake group: Mice (n=4) were given sRNA solution (1 nmol/animal, 500 μl) by direct gavage, and this group served as a negative control group;
3) Lipid treatment group: Mice (n=4) were given 500 μl of the lipid-nucleic acid mixture prepared in step 2 by gavage.
12 hrs after gavage in each group of mice, 500 μl of blood was taken from the eyeball, and 1.5 ml of Trizol Reagent LS (purchased from Invitrogen) was added and mixed well for lysis. The tissue sample was added with 3 ml of Trizol Reagent LS. and homogenized for full lysis, wherein the tissue sample included lung/kidney/spleen/heart/gut. 1 ml of blood or tissue lysate was taken and RNA was extracted according to the following steps.
The blood or tissue lysate was centrifuged at 4° C., and 12,000 rpm for 5 min, the pellet was discarded, and Trizol was transferred to a new centrifuge tube.
Chloroform was added in an amount of 200 μL chloroform/mL Trizol, shaken fully until uniform, and allowed to stand at room temperature for 5 min.
The sample was centrifuged at 4° C., and 12,000 rpm, for 15 min.
The upper aqueous phase was pipetted to another centrifuge tube, and isopropanol was added in an amount of 0.4 mL isopropanol/mL Trizol, mixed well, and allowed to stand at a low temperature for 10-20 min.
The sample was centrifuged at 4° C., and 12,000 rpm, for 15 min, the supernatant was discarded, and the RNA pellet was at the bottom of the tube.
1 mL of 75% ethanol was added, and the centrifuge tube was shaken gently, to suspend the pellet.
The sample was centrifuged at 4° C., and 12,000 rpm, for 10 min, the supernatant was discarded, 1 mL of 75% ethanol was added, and the centrifuge tube was shaken gently, to suspend the pellet.
The sample was centrifuged at 4° C., and 12,000 rpm, for 10 min, the supernatant was discarded, and the sample was air dried at room temperature. The RNA sample was dissolved in 50-100 μL of RNase-free H2O, and the RNA concentration was quantified by determining the OD value.
The sRNA was reversely transcribed into cDNA using a reverse transcription kit (High-Capacity cDNA Reverse Transcription Kits, Applied Biosystems, cat. no. 4368813), following the stem-loop method (see, for example Real-time quantification of microRNAs by stem-loop RT-PCR, Nucleic Acids Res. 2005 Nov. 27; 33(20):e179, incorporated herein by reference). System for reverse transcription: template RNA (200 ng/μL) 10 μL, 10×RT buffer 2.0 μL, 25×dNTP Mix (100 mM) 0.8 μL, U6 RT stem-loop primer 2.0 μL, PGY-sRNA-26 RT stem-loop primer 2.0 μL, MultiScribe™ reverse transcriptase 1.0 μL, RNAase inhibitor 1.0 μL, and nuclease-free water H2O 1.2 μL. […]

[1] = significant difference compared to the control, 100 μg lipid:1 nmol PGY-sRNA-26, 12 hrs

Molecule	oral delivery of sRNA single-chain nucleic acid into the blood, and lung, kidney, spleen, heart, and intestinal tissue of mice	oral delivery of sRNA single-stranded nucleic acid into the lung tissue of mice [1]	oral delivery of sRNA single-stranded nucleic acid into the blood of mice [1]
CCCCCCCCCCCCCCCCCCCC(=O)OCC(COC(=O)CCCCCCCCCCCCCCCCCCC)OC(=O)CCCCCCCCCCCCCCCCCCC [Lipid 112, Trieicosanoin]	can effectively orally deliver		
CCCCCCCCCCCCCCCC(=O)OC[C@@H](O)COP(=O)([O-])OCC[N+](C)(C)C [Lipid 113, 1-palmitoyl-2-hydroxy-sn-glycerol-3-phosphatidylcholine]	can effectively orally deliver		
CCCCCCCC/C=C\CCCCCCCC(=O)OCC(O)COP(=O)(O)OCCN (stereo not drawn) [Lipid 116, 1-(9Z-octadecenoyl)-sn-glycero-3-phosphoethanolamine]	can effectively orally deliver		
CCCCCCCC/C=C\CCCCCCCC(=O)OC[C@H](COP(=O)([O-])OCC[N+](C)(C)C)OC(=O)CCCCCCC/C=C\CCCCCCCC [Lipid 117, 1,2-bis-(9Z-octadecenoyl)-sn-glycero-3-phosphocholine]	can effectively orally deliver		
CCCCCCCC/C=C\CCCCCCCC(=O)O[C@H](COC(=O)CCCCCCCCCCCCCCC)COP(=O)([O-])OCC[N+](C)(C)C [Lipid 118, 1-palmitoyl-2-oleoyl-sn-glycero-3-phosphatidylcholine]	can effectively orally deliver		
CCCCCCCCCCCCCCCC(=O)OCC(COP(=O)([O-])OCC[N+](C)(C)C)OC(=O)CCCCCCCCCCCCCCC (stereo not drawn) [Lipid 119, 1,2-dihexadecanoyl-sn-glycero-3-phosphocholine]	can effectively orally deliver		
N-palmitoleoyl-D-erythro-sphingosylphosphocholine [Lipid 103]	can effectively orally deliver	can significantly efficiently orally deliver	
N-palmitoyl-D-erythro-sphingosylphosphocholine [Lipid 105]	can effectively orally deliver		can significantly efficiently orally deliver
N-stearoyl-D-erythro-sphingosylphosphocholine [Lipid 104]	can effectively orally deliver		can significantly efficiently orally deliver
